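In this assay, cells in 96-well plates receive the compound at five concentrations for 48 hours. Endpoints are linearly interpolated between the surrounding concentrations. The concentration for 50% growth inhibition is given as GI50.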 Calls of active or inactive are those of the source. No stated cut-off is given here; in the data, active = GI50 up to about 1.1 µM and inactive = higher. Where a SMILES comes first, the peptide text is derived from it. The star is where a group is joined. Boc = CC(C)(C)OC(=O)*; Bn = c1ccc(C*)cc1
What was measured:
Assay in all cases: DTP human tumour cell line panel, 48 h
CCRF-CEM = test system: CCRF-CEM
EKVX = test system: EKVX
HCT-116 = test system: HCT-116
IGROV-1 = test system: IGROV-1
LOX IMVI = test system: LOX IMVI
M14 = test system: M14
MCF7 = test system: MCF7
MDA-MB-435 = test system: MDA-MB-435
NCI-H460 = test system: NCI-H460
NCI-H522 = test system: NCI-H522
OVCAR-3 = test system: OVCAR-3
RXF 393 = test system: RXF 393
SK-OV-3 = test system: SK-OV-3
SN12C = test system: SN12C
SNB-19 = test system: SNB-19
SNB-75 = test system: SNB-75
SR = test system: SR
UACC-257 = test system: UACC-257
CAKI-1 = test system: CAKI-1
SK-MEL-2 = test system: SK-MEL-2

Row | Compound | GI50 (CCRF-CEM) | GI50 (EKVX) | GI50 (HCT-116) | GI50 (IGROV-1) | GI50 (LOX IMVI) | GI50 (M14) | GI50 (MCF7) | GI50 (MDA-MB-435) | GI50 (NCI-H460) | GI50 (NCI-H522) | GI50 (OVCAR-3) | GI50 (RXF 393) | GI50 (SK-OV-3) | GI50 (SN12C) | GI50 (SNB-19) | GI50 (SNB-75) | GI50 (SR) | GI50 (UACC-257) | GI50 (CAKI-1) | GI50 (SK-MEL-2)
1 | CCOC(=O)OC1C(Br)C2CCC1(C)C2(C)C (stereo unspecified) | 4.88 µM (inactive) | 15.5 µM (inactive) | 6.44 µM (inactive) | 18.7 µM (inactive) | 6.59 µM (inactive) | 12.6 µM (inactive) | 15 µM (inactive) | 11.4 µM (inactive) | 4.79 µM (inactive) | 15.2 µM (inactive) | 14.7 µM (inactive) | 10.9 µM (inactive) | 15.7 µM (inactive) | 14.4 µM (inactive) | 14.6 µM (inactive) | 11.1 µM (inactive) | 2.39 µM (inactive) | 15.9 µM (inactive) | – | –
2 | CC1(C)CCC2(C(=O)OC3OC(CO)C(O)C(O)C3O)CCC3(CO)C(=CCC4C5(C)CC(O)C(O)C(C)(C(=O)OC6OC(CO)C(O)C(O)C6O)C5CCC43C)C2C1 (stereo unspecified) | – | > 100 µM (inactive) | > 100 µM (inactive) | > 100 µM (inactive) | > 100 µM (inactive) | > 100 µM (inactive) | > 100 µM (inactive) | > 100 µM (inactive) | > 100 µM (inactive) | > 100 µM (inactive) | > 100 µM (inactive) | > 100 µM (inactive) | > 100 µM (inactive) | > 100 µM (inactive) | > 100 µM (inactive) | > 100 µM (inactive) | 44.8 µM (inactive) | > 100 µM (inactive) | > 100 µM (inactive) | > 100 µM (inactive)
3 | COc1ccc(C(C)NNC(=O)c2ccncc2)cc1F (stereo unspecified) | > 100 µM (inactive) | > 100 µM (inactive) | > 100 µM (inactive) | > 100 µM (inactive) | > 100 µM (inactive) | > 100 µM (inactive) | > 100 µM (inactive) | > 100 µM (inactive) | > 100 µM (inactive) | – | > 100 µM (inactive) | > 100 µM (inactive) | > 100 µM (inactive) | > 100 µM (inactive) | > 100 µM (inactive) | > 100 µM (inactive) | > 100 µM (inactive) | > 100 µM (inactive) | > 100 µM (inactive) | > 100 µM (inactive)
4 | CC1(C)N=C(N)N=C(N)N1c1cccc(CSc2ccccc2)c1 | – | 23 µM (inactive) | 0.0588 µM (active) | 0.0301 µM (active) | 0.103 µM (active) | 0.346 µM (active) | 0.597 µM (active) | 0.0813 µM (active) | 0.0404 µM (active) | 0.318 µM (active) | 0.991 µM (active) | 0.169 µM (active) | 95.3 µM (inactive) | 0.0838 µM (active) | 0.218 µM (active) | 4.42 µM (inactive) | < 0.01 µM (active) | 3.85 µM (inactive) | 23.6 µM (inactive) | 18.4 µM (inactive)
5 | NC(=O)/C=C/NC(=O)/C=N\O | > 100 µM (inactive) | > 100 µM (inactive) | > 100 µM (inactive) | > 100 µM (inactive) | > 100 µM (inactive) | > 100 µM (inactive) | > 100 µM (inactive) | > 100 µM (inactive) | > 100 µM (inactive) | > 100 µM (inactive) | > 100 µM (inactive) | > 100 µM (inactive) | > 100 µM (inactive) | > 100 µM (inactive) | > 100 µM (inactive) | > 100 µM (inactive) | > 100 µM (inactive) | > 100 µM (inactive) | > 100 µM (inactive) | –
6 | CCn1cc(C(=O)O)c(=O)c2cc(F)c(N3CCN(CN4C(=O)/C(=N\NC(=O)c5ccncc5)c5cc(Cl)ccc54)CC3)cc21 | – | 32.6 µM (inactive) | 58.6 µM (inactive) | 18.3 µM (inactive) | 34.3 µM (inactive) | 54 µM (inactive) | 28.2 µM (inactive) | 28.6 µM (inactive) | 52.4 µM (inactive) | 21.8 µM (inactive) | 39.1 µM (inactive) | 19.6 µM (inactive) | 24.9 µM (inactive) | 69.5 µM (inactive) | 44.3 µM (inactive) | 25.5 µM (inactive) | 2.34 µM (inactive) | 37.6 µM (inactive) | 23.7 µM (inactive) | 23 µM (inactive)
7 | COC(=O)C[C@H]1[C@]2(C)C3=C(C)[C@H](c4ccoc4)CC3O[C@@H]2[C@@H]2OC(=O)[C@]3(C)CCC(=O)[C@@]1(C)[C@@H]23 (stereo partly specified) | 19.9 µM (inactive) | – | 35.4 µM (inactive) | 71.3 µM (inactive) | 40.1 µM (inactive) | 41.6 µM (inactive) | 31.4 µM (inactive) | 37.2 µM (inactive) | > 100 µM (inactive) | 14.5 µM (inactive) | 53 µM (inactive) | 53.5 µM (inactive) | > 100 µM (inactive) | 69.7 µM (inactive) | – | 42.8 µM (inactive) | 19.6 µM (inactive) | 61 µM (inactive) | 52.5 µM (inactive) | > 100 µM (inactive)
8 | COC1(OC)CC(CO)(CNc2cc(Cl)nc(N)n2)C1 | > 100 µM (inactive) | 39.7 µM (inactive) | > 100 µM (inactive) | > 100 µM (inactive) | > 100 µM (inactive) | – | > 100 µM (inactive) | > 100 µM (inactive) | > 100 µM (inactive) | > 100 µM (inactive) | > 100 µM (inactive) | 55.7 µM (inactive) | > 100 µM (inactive) | > 100 µM (inactive) | > 100 µM (inactive) | – | > 100 µM (inactive) | 39.1 µM (inactive) | > 100 µM (inactive) | > 100 µM (inactive)
9 | CN(C)c1cccc2c1C(=O)C=CC21c2ccc(N(C)C)c3c(N(C)C)ccc(c23)C(c2ccccc2)C1c1ccccc1 (stereo unspecified) | 4.86 µM (inactive) | 22.2 µM (inactive) | 21.3 µM (inactive) | 12 µM (inactive) | 15.2 µM (inactive) | 16.7 µM (inactive) | 17.9 µM (inactive) | 15 µM (inactive) | 24 µM (inactive) | 21.3 µM (inactive) | 12.6 µM (inactive) | 13 µM (inactive) | 11.4 µM (inactive) | 10.8 µM (inactive) | 16.3 µM (inactive) | 8.26 µM (inactive) | 7.82 µM (inactive) | 12.6 µM (inactive) | 1.64 µM (inactive) | –
10 | CCCCCCCCCCCC[C@H](O)[C@H]1CC[C@H]([C@H](O)CCCC[C@H](O)CCCCC[C@@H](O)CC2=C[C@H](C)OC2=O)O1 | 1.71 µM (inactive) | 1.6 µM (inactive) | 1.76 µM (inactive) | 3.98 µM (inactive) | 1.11 µM (active) | 3.45 µM (inactive) | 1.4 µM (inactive) | 1.4 µM (inactive) | 3.04 µM (inactive) | 5.21 µM (inactive) | 2.19 µM (inactive) | 16.6 µM (inactive) | – | 5.83 µM (inactive) | 1.13 µM (inactive) | 4.99 µM (inactive) | 2.82 µM (inactive) | 0.407 µM (active) | 6.24 µM (inactive) | 3.05 µM (inactive)
11 | Cc1ccc2c(c1)C(=O)C1(C2)Cc2cccc(C)c2C1=O (stereo unspecified) | > 100 µM (inactive) | > 100 µM (inactive) | > 100 µM (inactive) | > 100 µM (inactive) | > 100 µM (inactive) | > 100 µM (inactive) | > 100 µM (inactive) | > 100 µM (inactive) | > 100 µM (inactive) | > 100 µM (inactive) | > 100 µM (inactive) | > 100 µM (inactive) | > 100 µM (inactive) | > 100 µM (inactive) | 35.2 µM (inactive) | > 100 µM (inactive) | > 100 µM (inactive) | > 100 µM (inactive) | 0.0418 µM (active) | –
12 | C=C1c2nc3ccccc3n2C=C(c2ccc(Cl)cc2)N1c1ccc(OCCN2CCCCC2)cc1 | > 45 µM (inactive) | > 45 µM (inactive) | > 45 µM (inactive) | > 45 µM (inactive) | > 45 µM (inactive) | > 45 µM (inactive) | > 45 µM (inactive) | 1.59 µM (inactive) | 1.72 µM (inactive) | 14.8 µM (inactive) | > 45 µM (inactive) | > 45 µM (inactive) | > 45 µM (inactive) | > 45 µM (inactive) | > 45 µM (inactive) | – | > 45 µM (inactive) | 0.843 µM (active) | > 45 µM (inactive) | > 45 µM (inactive)
13 | COC(=O)[C@]1(C)CCC[C@]2(C)[C@@H](CCC(=O)C(C)C)[C@]3(C=O)O[C@@H]3C[C@H]21 | 32.2 µM (inactive) | 44.8 µM (inactive) | 21.7 µM (inactive) | – | 24.7 µM (inactive) | 32.1 µM (inactive) | 33.4 µM (inactive) | 28.2 µM (inactive) | > 100 µM (inactive) | 16.8 µM (inactive) | 33.4 µM (inactive) | 19 µM (inactive) | 35.6 µM (inactive) | 30.6 µM (inactive) | 37.2 µM (inactive) | 17.1 µM (inactive) | 30.7 µM (inactive) | 37.9 µM (inactive) | 14.8 µM (inactive) | 34.1 µM (inactive)
14 | COC(=O)C(CC(C)C)NC(=O)C(C)NC(=O)C(Cc1ccc(OCc2ccccc2)cc1)NC(=O)C(COCc1ccccc1)NC(=O)OC(C)(C)C (stereo unspecified) (Boc-S(Bn)Y(Bn)AL-OMe; configuration not given here) | – | > 100 µM (inactive) | > 100 µM (inactive) | > 100 µM (inactive) | > 100 µM (inactive) | > 100 µM (inactive) | > 100 µM (inactive) | > 100 µM (inactive) | > 100 µM (inactive) | > 100 µM (inactive) | > 100 µM (inactive) | > 100 µM (inactive) | > 100 µM (inactive) | > 100 µM (inactive) | > 100 µM (inactive) | > 100 µM (inactive) | > 100 µM (inactive) | – | > 100 µM (inactive) | –

— ChEMBL document CHEMBL1201862, “PubChem BioAssay data set” (2004)
